Laboratory results as given in BindingDB's records for doi:10.1016/S1074-5521(02)00184-9 (The Scripps Research Institute, 2002).

Target: HIV-1 protease (Human immunodeficiency virus, UniProt O90785)
Experiment: Inhibition Assay
Conditions: pH 5.6; 37 °C
From the text: Inhibition of HIV-protease activity for selected acids at P3-P3' positions.

Chain of HIV-1 protease (O90785 whole entry): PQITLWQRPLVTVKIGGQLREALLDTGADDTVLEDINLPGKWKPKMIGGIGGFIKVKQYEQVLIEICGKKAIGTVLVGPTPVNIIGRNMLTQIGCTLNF

First: CC(C)[C@H](NC(=O)c1ccc2ccccc2n1)C(=O)N[C@@H](Cc1ccccc1)[C@@H](O)[C@H](O)[C@H](Cc1ccccc1)NC(=O)[C@@H](NC(=O)c1ccc2ccccc2n1)C(C)C [P3-P3' Entry 6]
Second: CC(C)[C@H](NC(=O)c1cc(O)c2ccccc2n1)C(=O)N[C@@H](Cc1ccccc1)[C@@H](O)[C@H](O)[C@H](Cc1ccccc1)NC(=O)[C@@H](NC(=O)c1cc(O)c2ccccc2n1)C(C)C [P3-P3' Entry 4]
The IC50 of the first is 1.9-fold lower: 10 nM for the first, 19 nM for the second.

Going from `CC(C)[C@H](NC(=O)COc1ccc2ccccc2c1)C(=O)N[C@@H](Cc1ccccc1)[C@@H](O)[C@H](O)[C@H](Cc1ccccc1)NC(=O)[C@@H](NC(=O)COc1ccc2ccccc2c1)C(C)C` [P3-P3' Entry 7] to `CC(C)[C@H](NC(=O)Cc1c[nH]c2ccccc12)C(=O)N[C@@H](Cc1ccccc1)[C@@H](O)[C@H](O)[C@H](Cc1ccccc1)NC(=O)[C@@H](NC(=O)Cc1c[nH]c2ccccc12)C(C)C` [P3-P3' Entry 1], the IC50 rises from 10 nM to 17 nM (1.7-fold). The first is the more potent here.

`CC(C)[C@H](NC(=O)c1ccc(CN2CCOCC2)o1)C(=O)N[C@@H](Cc1ccccc1)[C@@H](O)[C@H](O)[C@H](Cc1ccccc1)NC(=O)[C@@H](NC(=O)c1ccc(CN2CCOCC2)o1)C(C)C` [P3-P3' Entry 15] and `CC(C)[C@H](NC(=O)c1ccc(CN2CCCCC2)o1)C(=O)N[C@@H](Cc1ccccc1)[C@@H](O)[C@H](O)[C@H](Cc1ccccc1)NC(=O)[C@@H](NC(=O)c1ccc(CN2CCCCC2)o1)C(C)C` [P3-P3' Entry 14] cannot be ordered by IC50: over 50 nM for the first, over 50 nM for the second.

`CC(C)[C@H](NC(=O)CCc1c[nH]c2ccccc12)C(=O)N[C@@H](Cc1ccccc1)[C@@H](O)[C@H](O)[C@H](Cc1ccccc1)NC(=O)[C@@H](NC(=O)CCc1c[nH]c2ccccc12)C(C)C` [P3-P3' Entry 2] and `CC(C)[C@H](NC(=O)CCCc1c[nH]c2ccccc12)C(=O)N[C@@H](Cc1ccccc1)[C@@H](O)[C@H](O)[C@H](Cc1ccccc1)NC(=O)[C@@H](NC(=O)CCCc1c[nH]c2ccccc12)C(C)C` [P3-P3' Entry 3] are within 1.5-fold of each other in IC50: 10 nM for the first, 14 nM for the second.

Going from `CC(C)[C@H](NC(=O)c1ccc(-c2c(Cl)cc([N+](=O)[O-])cc2Cl)o1)C(=O)N[C@@H](Cc1ccccc1)[C@@H](O)[C@H](O)[C@H](Cc1ccccc1)NC(=O)[C@@H](NC(=O)c1ccc(-c2c(Cl)cc([N+](=O)[O-])cc2Cl)o1)C(C)C` [P3-P3' Entry 10] to `CC(C)[C@H](NC(=O)c1ccc(-c2ccc([N+](=O)[O-])cc2)o1)C(=O)N[C@@H](Cc1ccccc1)[C@@H](O)[C@H](O)[C@H](Cc1ccccc1)NC(=O)[C@@H](NC(=O)c1ccc(-c2ccc([N+](=O)[O-])cc2)o1)C(C)C` [P3-P3' Entry 8], the IC50 falls from over 50 nM to 6 nM.

Going from `CC(C)[C@H](NC(=O)c1ccc([N+](=O)[O-])o1)C(=O)N[C@@H](Cc1ccccc1)[C@@H](O)[C@H](O)[C@H](Cc1ccccc1)NC(=O)[C@@H](NC(=O)c1ccc([N+](=O)[O-])o1)C(C)C` [P3-P3' Entry 9] to `CC(C)[C@H](NC(=O)c1ccc(-c2ccc([N+](=O)[O-])cc2[N+](=O)[O-])o1)C(=O)N[C@@H](Cc1ccccc1)[C@@H](O)[C@H](O)[C@H](Cc1ccccc1)NC(=O)[C@@H](NC(=O)c1ccc(-c2ccc([N+](=O)[O-])cc2[N+](=O)[O-])o1)C(C)C` [P3-P3' Entry 12], the IC50 falls from 20 nM to 10 nM (2-fold). The second is the more potent here.

Compared with `CC(C)[C@H](NC(=O)c1ccc(-c2cc(C(F)(F)F)ccc2Cl)o1)C(=O)N[C@@H](Cc1ccccc1)[C@@H](O)[C@H](O)[C@H](Cc1ccccc1)NC(=O)[C@@H](NC(=O)c1ccc(-c2cc(C(F)(F)F)ccc2Cl)o1)C(C)C` [P3-P3' Entry 11], `CC(C)[C@H](NC(=O)c1ccc(-c2ccc(Cl)cc2)o1)C(=O)N[C@@H](Cc1ccccc1)[C@@H](O)[C@H](O)[C@H](Cc1ccccc1)NC(=O)[C@@H](NC(=O)c1ccc(-c2ccc(Cl)cc2)o1)C(C)C` [P3-P3' Entry 16] is lower in IC50: over 50 nM for the first, 10 nM for the second. The second is the more potent here.

Compared with `CC(C)[C@H](NC(=O)c1ccc(C(=O)c2ccccc2)o1)C(=O)N[C@@H](Cc1ccccc1)[C@@H](O)[C@H](O)[C@H](Cc1ccccc1)NC(=O)[C@@H](NC(=O)c1ccc(C(=O)c2ccccc2)o1)C(C)C` [P3-P3' Entry 13], `CCC(C)[C@H](NC(=O)c1ccc2cccc(O)c2n1)C(=O)N[C@@H](Cc1ccccc1)[C@@H](O)[C@H](O)[C@H](Cc1ccccc1)NC(=O)[C@@H](NC(=O)c1ccc2cccc(O)c2n1)C(C)C` (stereo partly drawn) [P3-P3' Entry 5] is higher in IC50: 10 nM for the first, over 50 nM for the second.

`CC(C)[C@H](NC(=O)OCc1ccccc1)C(=O)N[C@@H](Cc1ccccc1)[C@@H](O)[C@H](O)[C@H](Cc1ccccc1)NC(=O)[C@@H](NC(=O)OCc1ccccc1)C(C)C` and `CC(C)[C@H](NC(=O)c1ccc(-c2ccc([N+](=O)[O-])cc2)o1)C(=O)N[C@@H](Cc1ccccc1)[C@@H](O)[C@H](O)[C@H](Cc1ccccc1)NC(=O)[C@@H](NC(=O)c1ccc(-c2ccc([N+](=O)[O-])cc2)o1)C(C)C` [P3-P3' Entry 8] are within 1.5-fold of each other in Ki: 1.5 nM for the first, 2 nM for the second.
